Measurements reported in EPA's ToxRefDB 2.

Tests used:
primate [1] = conditions: Subchronic oral toxicity in nonrodent, Gavage/Intubation, dose end: 91 day, group: systemic, systemic / pathology microscopic / intestine small / erosion
dog [2] = conditions: Sub-acute repeat dose toxicity, beagle, Oral, Gavage/Intubation, dose end: 14 day, group: systemic
mouse [3] = conditions: Subchronic oral toxicity in rodents, Gavage/Intubation, dose end: 91 day, group: systemic
rat [4] = conditions: Prenatal developmental toxicity study, Oral, Gavage/Intubation, dose end: 18 GD
primate [5] = conditions: Sub-acute repeat dose toxicity, Oral, Gavage/Intubation, dose end: 14 day, group: systemic
rat [6] = conditions: Fertility (Segment I), Oral, Gavage/Intubation, dose end: 1 generation, group: parental
rat [7] = conditions: Peri- and post-natal toxicity study (Segment III), Oral, Gavage/Intubation, dose end: 1 generation
rat [8] = conditions: Chronic toxicity, Oral, Gavage/Intubation, dose end: 182 day, group: systemic
rat [9] = conditions: Chronic toxicity; wistar; Oral; Feed; dose end: 104 week; group: systemic; systemic / pathology microscopic / eye / degeneration + systemic / pathology microscopic / prostate / fibrosis + systemic / pathology …
dog [10] = conditions: Chronic toxicity, beagle, Oral, Feed, dose end: 52 week, group: systemic
mouse [11] = conditions: Subchronic oral toxicity in rodents, other, Feed, dose end: 90 day, group: systemic, systemic / clinical chemistry / cholesterol / cholesterol + systemic / clinical chemistry / triglycerides / triglycerides + systemic / organ…
rat [12] = conditions: Multigenerational reproductive toxicity study, wistar, Oral, Feed, dose end: 2 generation
rat [13] = conditions: Peri- and post-natal toxicity study (Segment III), sprague dawley, Oral, Gavage/Intubation, dose end: 54 PND
mouse [14] = conditions: Carcinogenicity, other, Oral, Feed, dose end: 18 month, group: systemic
rat [15] = conditions: Multigenerational reproductive toxicity study, wistar, Oral, Feed, dose end: 2 generation; remark: listed apart in the source
[16] = systemic / clinical chemistry / [other] / [other] + systemic / clinical chemistry / creatinine / creatinine + systemic / clinical chemistry…
[17] = systemic / in life observation / clinical signs / abnormal feces + systemic / in life observation / food consumption / food consumption + …
[18] = systemic / clinical chemistry / [other] / [other] + systemic / hematology / leukocyte (wbc) count differential / leukocyte (wbc) + systemic…
[19] = group: developmental, developmental / developmental malformation / bone / delayed ossification + developmental / developmental malformation / bone / [other] + …
[20] = group: maternal, systemic / in life observation / body weight / body weight gain + systemic / in life observation / clinical signs / abnormal feces + …
[21] = systemic / hematology / erythrocyte (rbc) count differential / erythrocyte (rbc) + systemic / hematology / hematocrit (hct) / hematocrit (…
[22] = systemic / in life observation / body weight / body weight + systemic / in life observation / clinical signs / [other] + systemic / in life …
[23] = systemic / in life observation / body weight / body weight + systemic / in life observation / food consumption / food consumption
[24] = group: maternal, reproductive / offspring survival early / dead fetuses / dead fetuses + reproductive / reproductive performance / dystocia / dystocia + …
[25] = group: maternal, reproductive / offspring survival early / litter size / litter size
[26] = group: parental, systemic / in life observation / clinical signs / body cold to touch + systemic / in life observation / clinical signs / cannibalism + …
[27] = group: parental, systemic / in life observation / clinical signs / body cold to touch + systemic / in life observation / clinical signs / dehydration + …
[28] = systemic / clinical chemistry / albumin / albumin + systemic / clinical chemistry / calcium / calcium + systemic / clinical chemistry / …
[29] = systemic / organ weight / kidney / absolute + systemic / pathology microscopic / intestine small / erosion
[30] = systemic / hematology / reticulocyte / reticulocyte + systemic / organ weight / adrenal gland / absolute + systemic / organ weight / adrenal…
[31] = group: offspring, systemic / organ weight / adrenal gland / absolute + systemic / organ weight / liver / absolute
[32] = group: parental, systemic / organ weight / epididymis / absolute
[33] = group: reproductive, reproductive / reproductive performance / fertility / fertility + reproductive / offspring survival early / birth index / live birth index
[34] = group: developmental, developmental / developmental landmark / preputial separation / preputial separation
[35] = group: parental, systemic / organ weight / [other] / absolute + systemic / organ weight / adrenal gland / absolute + systemic / organ weight / prostate / …
[36] = group: parental, systemic / pathology gross / kidney / dilatation
[37] = systemic / organ weight / adrenal gland / relative to body weight + systemic / organ weight / brain / relative to body weight + systemic / …
[38] = group: offspring, systemic / organ weight / liver / absolute
[39] = group: parental, systemic / organ weight / epididymis / absolute + systemic / organ weight / adrenal gland / absolute

## CC(C)(C)c1cc(/C=C2\SC(N)=NC2=O)cc(C(C)(C)C)c1O.CS(=O)(=O)O [Darbufelone mesylate]
Primate [1]
  LEL: 10 mg/kg/day
  LOAEL: > 50 mg/kg/day
  NEL: 5 mg/kg/day
  NOAEL: ≥ 50 mg/kg/day
Dog [2]; [16]
  LOAEL: > 200 mg/kg/day
  NOAEL: ≥ 200 mg/kg/day
Dog [2]; [17]
  LEL: 10 mg/kg/day
  NEL: < 10 mg/kg/day
Mouse [3]; [18]
  LOAEL: > 300 mg/kg/day
  NOAEL: ≥ 300 mg/kg/day
Mouse [3]; systemic / clinical chemistry / protein / protein
  NEL: < 35 mg/kg/day
Rat [4]; [19]
  LOAEL: > 75 mg/kg/day
  NOAEL: ≥ 75 mg/kg/day
Rat [4]; [20]
  LOAEL: > 75 mg/kg/day
  NOAEL: ≥ 75 mg/kg/day
Primate [5]; [21]
  LOAEL: > 1000 mg/kg/day
  NOAEL: ≥ 1000 mg/kg/day
Primate [5]; [22]
  LEL: 100 mg/kg/day
  NEL: < 100 mg/kg/day
Rat [6]; systemic / in life observation / body weight / body weight
  LEL: 75 mg/kg/day
Rat [6]; [23]
  LOAEL: > 100 mg/kg/day
  NEL: 35 mg/kg/day
  NOAEL: ≥ 100 mg/kg/day
Rat [7]; [24]
  LEL: 1 mg/kg/day
  NEL: < 1 mg/kg/day
Rat [7]; [25]
  LOAEL: > 2 mg/kg/day
  NOAEL: ≥ 2 mg/kg/day
Rat [7]; [26]
  LEL: 1 mg/kg/day
  NEL: < 1 mg/kg/day
Rat [7]; [27]
  LOAEL: > 2 mg/kg/day
  NOAEL: ≥ 2 mg/kg/day
Rat [8]; [28]
  LOAEL: > 75 mg/kg/day
  NOAEL: ≥ 75 mg/kg/day
Rat [8]; [29]
  LEL: 5 mg/kg/day
  NEL: < 5 mg/kg/day

## C=CC1(C)OC(=O)N(c2cc(Cl)cc(Cl)c2)C1=O (centres undefined) [Vinclozolin]
Rat [9]
  LEL: 7 mg/kg/day
  LOAEL: 7 mg/kg/day
  NEL: < 7 mg/kg/day
  NOAEL: < 7 mg/kg/day
Dog [10]; [30]
  LOAEL: 47 mg/kg/day
  NEL: 2.4 mg/kg/day
  NOAEL: 4.8 mg/kg/day
Dog [10]; systemic / organ weight / adrenal gland / absolute + systemic / organ weight / adrenal gland / relative to body weight + systemic / clinical…
  LEL: 4.8 mg/kg/day
Mouse [11]
  LEL: 230 mg/kg/day
  LOAEL: 230 mg/kg/day
  NEL: 20 mg/kg/day
  NOAEL: 20 mg/kg/day
Rat [12]; [31]
  LEL: 30 mg/kg/day
  LOAEL: 30 mg/kg/day
  NEL: 4.9 mg/kg/day
  NOAEL: 4.9 mg/kg/day
Rat [12]; [32]
  LEL: 4.9 mg/kg/day
  LOAEL: 4.9 mg/kg/day
  NEL: < 4.9 mg/kg/day
  NOAEL: < 4.9 mg/kg/day
Rat [12]; group: reproductive, reproductive / reproductive performance / fertility / fertility
  NEL: 101 mg/kg/day
Rat [12]; [33]
  LEL: 290 mg/kg/day
  LOAEL: > 290 mg/kg/day
  NOAEL: ≥ 290 mg/kg/day
Rat [13]; [34]
  LEL: 10 mg/kg/day
  LOAEL: > 100 mg/kg/day
  NEL: < 10 mg/kg/day
  NOAEL: ≥ 100 mg/kg/day
Rat [13]; [35]
  LOAEL: > 100 mg/kg/day
  NOAEL: ≥ 100 mg/kg/day
Rat [13]; [36]
  LEL: 10 mg/kg/day
  NEL: < 10 mg/kg/day
Mouse [14]; systemic / in life observation / body weight / body weight gain
  LOAEL: 20.6 mg/kg/day
Mouse [14]; [37]
  LEL: 2.1 mg/kg/day
  NEL: < 2.1 mg/kg/day
  NOAEL: 2.1 mg/kg/day
Rat [15]; [38]
  LEL: 4.1 mg/kg/day
  LOAEL: > 4.1 mg/kg/day
  NEL: 2 mg/kg/day
  NOAEL: ≥ 4.1 mg/kg/day
Rat [15]; [39]
  LEL: 2 mg/kg/day
  LOAEL: > 4.1 mg/kg/day
  NEL: < 2 mg/kg/day
  NOAEL: ≥ 4.1 mg/kg/day
